In US4337256A, “1-Phenyl isoquinoline-5-acetic acid compounds and analgesic compositions thereof” (priority 1978, dated 1982):
Read-outs that look alike come from different tables or passages of the source.

Assays:
[1] = reported in J. Med. Chem. 1978, 21, 582-585; cited from earlier work
stomach mucosal membrane = assay: Ulcerogenic activity: gastric ulceration; format: in vivo, male Wistar rats; conditions: p.o., 4 h
Description: Each of the test compounds was orally administered by the same way as in the test on anti-inflammatory activity to male Wistar rats weighing 120 to 150 g which had been fasted for 24 hours. Four hours later, they were killed with ether.

platelet aggregation = assay: Activity of inhibiting platelet aggregation (collagen-induced); format: cell-based, male Hartley guinea pig; conditions: Cavia porcellus, 2 min, read-out: ED50 (inhibition of platelet aggregation)
Description: The citrated blood was centrifuged at a speed of 1,000 rpm for 10 minutes. The supernatant was collected to obtain a platelet-rich plasma. Separately, it was contrifuged at a speed of 3,000 rpm for 15 minutes, and the supernatant was collected to obtain a platelet-poor plasma. […] The platelet-rich plasma (250 μl) was placed in a cuvet, and preliminarily heated at 37° C. for 2 minutes, and then while stirring at a speed of 1,000 rpm, 31 μl of a test solution was added. The mixture was incubated for 2 minutes with stirring, and then 31 μl of a collagen solution was added, and the maximum aggregation rate of platelet was measured. The amount of the collagen applied was adjusted to the minimum effective amount which induced irreversible platelet aggregation. This amount was determined for each experiment. The percent inhibition of the test solution-applied group was determined in accordance with the following equation. From the percent inhibition, the ED50 value of the test compounds was calculated in accordance with the Litchfield-Wilcoxon method. Each test compound was dissolved in distilled water as a sodium salt.

[2] = tested on: left hind paw edema (carrageenin); assay: Anti-inflammatory activity: carrageenin-induced left hind paw edema; format: in vivo, male Wistar rats; conditions: Rattus norvegicus, po, p.o., 1 h before carrageenin, measured 3 h later, read-out: Percent inhibition (edema)
Description: Male Wistar rats weighing 120 to 150 g which had been fasted for 24 hours were used in groups each consisting of 5 rats. In each group, the volumes of the left hind paw were measured by a volume differential meter (made by Ugo Basile Company), and each of the test compounds was suspended in an aqueous solution of 0.5% of carboxymethyl cellulose and 2.0% of Tween 80, and administered orally through a tube. After one hour from the administration, 0.1 ml of a 1% suspension of carrageenin in distilled water was subcutaneously injected into the plantar tissues of the left hind paw. Three hours later, the volumes of the left hind paw were again measured. The increase in volume of the left hind paw of each rat in each group (the volume of edema) was measured.

Toxicity test (LD50) = conditions: mouse, in vivo; oral, observed for 1 week; parentheses show 95% confidence limits
Description: Each of the test compounds was suspended in a physiological saline solution having dissolved therein 2% of Tween 80, and orally administered through a tube to groups of ddY mice (male: 19 to 22 g) each group consisting of 6 mice. The mice were then observed for 1 week. The LD50 values were calculated from the lethality in accordance with the method of Litchfield-Wilcoxon.

[3] = tested on: writhings (acetic acid) in the mice; assay: Analgesic activity: acetic acid writhing test; format: in vivo, male mice (ddY); conditions: Mus musculus, po; p.o. 1 h before 0.6% acetic acid i.p.; parentheses show 95% confidence limits; read-out: ED50 (analgesic, writhing inhibition)
Description: Male mice (ddY) weighing 18 to 22 g were used in groups each consisting of 10 mice. Each of the compounds was suspended in an aqueous solution of 0.5% of carboxymethyl cellulose and 2.0% of Tween 80, and administered orally through a tube. After one hour from the administration, 0.6% acetic acid was administered intraperitoneally in an amount of 0.1 ml per 10 g of body weight, and the number of writhings which occurred in the mice during a period of 20 minutes after the administration was measured. The percent inhibition was calculated from the following equation, and the ED50 values of the test compounds were calculated from the percent inhibition in accordance with the method of Litchfield-Wilcoxon.

[4] = target: T1, microsomes of bovine seminal vesicle (a prostaglandin synthesizing enzyme) (Bos taurus, UniProt O62664); assay: Activity of inhibiting prostaglandin synthesis (prostaglandin E2 formed); format: biochemical; conditions: 37° C., 5 minutes, pH 8.0, 50 μM arachidonic acid; dissolved as a sodium salt; read-out: ED50 (inhibition of prostaglandin synthesis)
T1 construct: a microsome fraction prepared from bovine seminal vesicle; from tissue; host or cells: bovine seminal vesicle, lyophilized microsome fraction
T1 sequence (O62664 25-600): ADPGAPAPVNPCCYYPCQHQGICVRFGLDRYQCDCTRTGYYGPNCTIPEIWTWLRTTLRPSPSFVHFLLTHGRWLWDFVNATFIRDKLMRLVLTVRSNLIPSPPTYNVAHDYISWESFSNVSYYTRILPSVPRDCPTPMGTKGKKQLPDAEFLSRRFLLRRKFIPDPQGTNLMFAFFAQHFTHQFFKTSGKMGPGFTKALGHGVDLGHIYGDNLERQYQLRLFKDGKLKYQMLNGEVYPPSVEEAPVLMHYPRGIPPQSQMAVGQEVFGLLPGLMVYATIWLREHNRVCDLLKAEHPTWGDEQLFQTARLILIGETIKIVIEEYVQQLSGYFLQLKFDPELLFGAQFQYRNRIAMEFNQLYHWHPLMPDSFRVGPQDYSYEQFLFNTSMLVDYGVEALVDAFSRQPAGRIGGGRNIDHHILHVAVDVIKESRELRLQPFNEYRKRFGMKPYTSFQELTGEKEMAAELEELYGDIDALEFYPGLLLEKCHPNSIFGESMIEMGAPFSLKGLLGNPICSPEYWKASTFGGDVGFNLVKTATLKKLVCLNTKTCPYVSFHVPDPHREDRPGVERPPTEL
Description: The activity of inhibiting prostaglandin synthesis was measured by adding a test compound, i.e. a substance having the activity of inhibiting prostaglandin synthesis, to a prostaglandin synthesizing reaction system shown below, and quantitatively determining to what extent synthesis of prostaglandin was inhibited.
100 mM tris-HCl buffer (pH=8.0),
0.0125 μCi/ml (14c)-arachidonic acid,
1 mg/ml, as protein, of microsomes of bovine seminal vesicle (a prostaglandin synthesizing enzyme obtained by lyophylizing a microsome fraction prepared from bovine seminal vesicle).
The test compound was added to the reaction system to adjust the total amount to 1 ml. As a control, 1 ml of the above reaction system without addition of the test compound was provided. Each of these was incubated with shaking at 37° C. for 5 minutes, and 0.5 ml of 0.3 M citric acid was added to stop the reaction. The prostaglandin formed was extracted with ethyl acetate, fractionated by thin-layer chromatography. The radioactivity of each fraction was measured by a liquid scintillation counter. The amount of prostaglandin E2 formed in the group to which the test compound had been applied was measured, and the percent inhibition was calculated in accordance with the following equation. From the percent inhibition, the ED50 value of the test compounds was calculated in accordance with the Litchfield-Wilcoxon method. […]

digestive organs = conditions: known agents, statement in words; cited from earlier work

In the case of NC(=O)Cc1cc2ccccc2c(-c2ccc(Cl)cc2)n1 [1-(4-chlorophenyl)-3-carbamoylmethyl isoquinoline], the “anti-inflammatory and analgesic activities” value [1] is given as “has anti-inflammatory and analgesic activities”.

For O=C(O)Cc1cccc2c(-c3ccc(Cl)cc3)nccc12 [A, 1-(4-chlorophenyl)isoquinoline-5-acetic acid], the “Gastric ulceration: bleeding at the mucosal membrane” value (stomach mucosal membrane; 10 mg/kg) was 0/10, the “Gastric ulceration: damage beneath the mucosal membrane” value (stomach mucosal membrane; 10 mg/kg) was 0/10 and the “Gastric ulceration: bleeding at the mucosal membrane” value (stomach mucosal membrane; 30 mg/kg) was 0/5. For the same molecule, the “Gastric ulceration: damage beneath the mucosal membrane” value (stomach mucosal membrane; 30 mg/kg) was 0/5, the IC50 (platelet aggregation; collagen-induced, platelet-rich plasma, dissolved as a sodium salt, parentheses show 95% confidence limits) was 1900 nM and the inhibition in vivo at 0.3 mg/kg ([2]; 0.3 mg/kg) was 22.7 ± 6.1%. The inhibition in vivo at 1 mg/kg ([2]; 1 mg/kg) was 27.3 ± 7.4%, the inhibition in vivo at 3 mg/kg ([2]; 3 mg/kg) was 44.6 ± 5.8% and the LD50 at 168 h (Toxicity test (LD50)) was 182 mg/kg. It also gave an ED50 [3] of 1.4 mg/kg and an IC50 [4] of 820 nM.

For CC(=O)Oc1ccccc1C(=O)O [Aspirin, reference compound], the IC50 (platelet aggregation; Platelet) is listed as 15800 nM and the “troubles in the digestive organs” value (digestive organs) is listed as “fairly heavy troubles in the digestive organs”.
